Assay results as given in patent publication US12012639B2, “Processes for isolation and recovery of C5 sugars” (University of Louisville Research Foundation, Inc., priority 2017, dated 2024).

Key:
solubility in water = type: physicochemical
[1] = solubility in ethyl acetate; type: physicochemical; conditions: at 25° C.

Compound | solubility of PBA in water (solubility in water; at 25° C.) [g PBA per 100 g H2O] | solubility in H2O (in words) (solubility in water; H2O) | volume of ethyl acetate that dissolves 1 gram [1] [mL]
OB(O)c1ccccc1 [PBA, phenyl boronic acid, reference compound] | 2.5 | – | –
c1ccc(B2OCC3OC4OB(c5ccccc5)OC4C3O2)cc1 (stereo not drawn) [XDE, xylose phenylboronic diester] | – | extremely insoluble | 5
